This is an account of results in US7074769B2, “Oligonucleotide inhibitors of bcl-xL” (The Trustees of Columbia University in the City of New York, priority 1998, dated 2006).

The subject of the assay is bcl-xL transfected LNCaP cells. Description: Drug treatment of bcl-xL transfected and parental LNCaP cells. In kind it is cell-based, human. As to conditions: for apoptosis induction: parental LNCaP cells or neomycin-expressing control-transfected LNCaP cells; for concentration up to which bcl-xL overexpressing LNCaP clones were resistant: treatment for 24 h. The protocol: LNCaP cells transfected with the neomycin-selectable pSFFV/bcl-xL plasmid or with a control, neomycin-resistant expression vector pSFFV. Aliquots containing 10 μg of plasmid and 5 μg of lipofectin reagent (Life technologies, Inc., Gaithersburg, Md.) in serum-free OPTI-MEM (Life Technologies, Inc.) were added to cultured cells. The transfection media was replaced 4 h later with RPMI-10% FBS medium. Individual colonies were selected from these plates after approximately 3–4 weeks of routine maintenance in RPMI-10% FBS containing 0.6 mg/ml G418 sulfate (Geneticin, Life Technologies, Inc.). The bcl-xL-transformed LNCaP cells were cultured in RPMI-10% FBS, supplemented with 0.3 mg/ml G418 sulfate in 5% CO2 atmosphere.
Two clones of LNCaP cells overexpressing bcl-xL protein (1072-4 and 1072-5) have been obtained after transfection of wild type LNCaP cells with the plasmid vector pSFFV/bcl-xL and lipofectin. Also a mock transfectant clone of LNCaP cells carrying neo® resistance gene (1072-3) was used for the control experiments. […] Western blot analysis for bcl-xL protein was performed as described above. […] For the Northern blot analysis, the total RNA was isolated from the cells using TRIZOL reagent (GIBCO BRL), and 20 μg aliquotes were separated in RNA-formaldehyde gel, blotted onto nylon membranes (Schleicher & Schull), UV-linked and prehybridized for two hours at 42° C. in the standard hybridization solution. Then the blot was hybridized overnight with the PCR-amplified fragment of human bcl-xL cDNA at 42° C. Dcl-xL coding fragment was amplified from pSFFV/bcl-xL plasmid using bcl-x specific primers. The primer sequences were: bcl-x-upstream, 5′-[…]-3′ (SEQ ID NO:36); and bcl-x-downstream, 5′-[…]-3′ (SEQ ID NO:37). Twenty five cycles of amplification were performed in DNA Thermal Cycler (Perkin-Elmer, Norwalk, Conn.) at 94° C. (30 sec), 55° C. (30 sec), and 72° C. (30 sec). The PCR products were analysed on a 1.2% agarose gel. The resultant fragment was labeled by random primer method to the specific activity 10^7 cpm/ng of the probe and used for the hybridization. After washings blots were autoradiographed for 24h at −80° C. Blots were stripped of radioactivity and reprobed with a ^32P-labeled G3PDH probe to confirm the equal loading.
Clonal derivatives of bcl-xL transfected LNCaP cells that were overexpressing high amounts of bcl-xL protein were resistant to taxol (up to 100 nM) and mitoxantrone (up to 4 μM) treatment for 24 h. […] This finding strongly supports the hypothesis that bcl-xL gene product is a factor in the development of chemotherapy resistance in hormone-refractory prostate cancer.

Consider `O=C1c2c(O)ccc(O)c2C(=O)c2c(NCCNCCO)ccc(NCCNCCO)c21` [mitoxantrone], for which the apoptosis induction entry was “induce apoptosis” and the “concentration up to which bcl-xL overexpressing LNCaP clones were resistant” value was “up to 4 μM”.

For `CC(=O)O[C@H]1C(=O)[C@@]2(C)[C@H]([C@H](OC(=O)c3ccccc3)[C@]3(O)C[C@H](OC(=O)[C@H](O)[C@@H](NC(=O)c4ccccc4)c4ccccc4)C(C)=C1C3(C)C)[C@]1(OC(C)=O)CO[C@@H]1C[C@@H]2O` [taxol], the apoptosis induction result is “induce apoptosis” and the “concentration up to which bcl-xL overexpressing LNCaP clones were resistant” value is on record as “up to 100 nM”.
